Laboratory results taken from US11834672B2, “Method for producing hypophysis precursor tissue” (RIKEN, priority 2011, dated 2023).
“Also recorded” adds a separate entry of the source. Ends that are not written are not given here.

What was measured:
[1] = tested on: mouse ES cell aggregates (10000 cells per aggregate); assay: Induction of pituitary precursor tissue (Lim3) in mouse ES cell aggregates by hedgehog signal treatment; format: cell-based
Description: Aggregates of mouse ES cells were formed from 10000 cells per aggregate by using the SFEBq/gfCDM method (Wataya et al, 2008, PNAS vol. 105, pp. 11796-11801), and subjected to the floating-culture as in Example 1. Immediately after the start of the differentiation culture, SAG (Danjo et al, JNS, 2011, vol. 31, pp. 1919-1933), a hedgehog agonist, was added at 100 or 400 nM, and the aggregates were cultured for a total of 10-13 days. […] The expression of Lim3, a marker of pituitary precursor tissue (Rathke's pouch), and the like was confirmed by PCR or cytochemical staining of frozen section by the fluorescence antibody method. The expression of Lim3 was also confirmed using Lim3::GFP knocked-in ES cells.

[2] = tested on: ES cell-derived ACTH-producing cells; assay: In vitro ACTH secretion from ES cell-derived ACTH-producing cells by CRH, ELISA of culture supernatant; format: cell-based, mouse; details: 10 min, SAG- and DAPT-treated aggregates
Description: Mouse ES cells were differentiated into ACTH-producing cells by a SAG treatment and a DAPT treatment (total 22 days) using the method of Example 3. The aggregates were treated with CRH (corticotropin releasing factor) and ACTH secretion was quantified. To be specific, eight aggregates were placed in 500 μl of HBSS solution and, after pre-incubation at 37° C. for 10 min, CRH was added at a final concentration of 10-10000 ng/ml, and the aggregates were incubated for 10 min. Then, the culture supernatant was recovered and measured by ELISA method (FIG. 4a).

[3] = tested on: ES cell-derived ACTH-producing cells; assay: as above; format: cell-based, mouse
hedgehog signaling = details: cited from earlier work
[4] = tested on: ES cell-derived pituitary precursor tissue; assay: Differentiation of ES cell-derived pituitary precursor tissue into ACTH-producing cells, fluorescence antibody staining; format: cell-based, mouse; details: for expression of Pitx1: DAPT, BIO or IWP2 treatment, day 26 (FIG. 3k)
Description: Furthermore, using gfCDM medium, the aggregates were cultured under 40% O2 and 5% CO2 for 12 days in total (total 22 days). Moreover, the aggregates were treated with Notch signal inhibitor, 10 μM DAPT, for one day during days 18-19 or days 20-21 of culture.

[5] = tested on: ES cell-derived pituitary precursor tissue; assay: Differentiation of ES cell-derived pituitary precursor tissue into GH-, PRL-, LH-, FSH-, TSH-positive cells; format: cell-based, mouse
Description: Mouse ES cells were differentiated into pituitary precursor tissues by an SAG treatment (400 nM for 7 days and 100 nM for 3 days, total 10 days) using the method of Example 2. Furthermore, the aggregates were continuously floating-cultured under 40% O2 and 5% CO2. The medium used was gfCDM comprising corticosteroid (200 ng/ml hydrocortisone) and 1 nM insulin, gfCDM comprising estrogen (50 ng/ml estradiol) and 1 nM insulin, or culture supernatant (conditioned medium) of mouse feeder cell, PA6 cell, in gfCDM.
The expression of growth hormone (GH), prolactin (PRL), luteinizing hormone (LH), follicle-stimulating hormone (FSH), and thyroid-stimulating hormone (TSH) was confirmed by cytochemical staining of frozen section by the fluorescence antibody method.

mouse ES cell aggregates = assay: SFEBq/gfCDM floating culture of mouse ES cell aggregates, non-neural head ectoderm marker Pitx2 by qPCR; format: cell-based; details: BMP4 0.5 nM added to the medium, SFEBq/CDM-cultured ESCs
human ES cells = assay: Floating aggregate culture of human ES cells with BMP4 and SAG, Pitx1 by qPCR and marker staining; format: cell-based; details: for E-cad positive non-neural ectoderm morphology: BMP-treated group, day 25 of culture
Description: Human ES cells (12000 cells) dispersed into single-cells with trypsin were subjected to floating aggregate culture in the presence of a […] ROCK inhibitor Y-27632 (Watanabe et al, Nature Neuroscience, 2007) in the same manner as in Example 1. The culture medium used was gfCDM added with 5% KSR. From day 3 of culture, 0.5 nM, 1.5 nM or 5.0 nM BMP4 was added to the culture medium, 1000 nM SAG was added from day 6 of culture, and the floating-culture was continued.

[6] = SAG 100 or 400 nM, PCR on day 10 and later

Cc1nn(-c2ccccc2)c(C)c1/C=N/N1CCN(Cc2ccccc2)CC1 [SANT-1]
effect on SAG induction of Lim3 ([1]; hedgehog receptor antagonist added to SAG-treated aggregates): inhibited

CRH: corticotropin releasing factor, hypothalamic hormone promoting ACTH secretion (SEEPPISLDLTFHLLREVLEMARAEQLAQQAHSNRKLMEII; ends and bridges not checked; UniProt P06850 154-194, looked up)
ACTH concentration of the culture supernatant ([2]; 10 ng/ml CRH): 1.4 pg/mL | ACTH concentration of the culture supernatant ([2]; 100 ng/ml CRH): 4 pg/mL | ACTH concentration of the culture supernatant ([2]; 1000 ng/ml CRH): 8.5 to 9.5 pg/mL | ACTH concentration of the culture supernatant ([2]; 10000 ng/ml CRH): 8.5 to 9.5 pg/mL | ACTH secretion ([3]; 1000 ng/ml CRH, aggregates without SAG treatment): did not show a significant increase | ACTH secretion ([3]; CRH added, aggregates with SAG treatment but without DAPT treatment): did not show much increase | induction of ACTH secretion by releasing hormones ([3]; SAG- and DAPT-treated aggregates (FIG. 4b)): CRH-specific; also recorded: enhancement of ACTH secretion

CNC1CCC(N(Cc2cccc(-c3ccncc3)c2)C(=O)c2sc3ccccc3c2Cl)CC1 (stereo not drawn) [SAG]
gene expression of Lim3 relative to SAG non-addition group [1, 6]: 7 fold | gene expression of Lim3 relative to undifferentiated ES cells [1, 6]: 15 fold | number of Lim3-positive epithelial pouch vesicles formed in the aggregate ([1]; SAG-addition group, further 3 days in gfCDM, total 13 days): 1-7 | activity compared with Shh (hedgehog signaling): several-fold stronger activity than Shh

Cc1ccc2nc(NC(=O)CSc3nc4c(c(=O)n3-c3ccccc3)SCC4)sc2c1 [IWP2]
expression of Pitx1 [4]: tended to decrease

C[C@]12CCC(=O)C=C1CC[C@@H]1[C@@H]2[C@@H](O)C[C@@]2(C)[C@H]1CC[C@]2(O)C(=O)CO [hydrocortisone]
GH-positive cells in the aggregate ([5]; gfCDM with 200 ng/ml hydrocortisone and 1 nM insulin for 10 days from day 20): many GH-positive cells | effect of pre-treatment on the ACTH secretion promoting effect of CRH ([3]; hydrocortisone 100 ng/ml pre-treatment for 60 min): suppressed almost completely; also recorded: suppressed the enhancement of ACTH secretion by CRH

C[C@H](NC(=O)Cc1cc(F)cc(F)c1)C(=O)N[C@H](C(=O)OC(C)(C)C)c1ccccc1 [DAPT]
expression of Tbx19 compared to without DAPT treatment ([4]; 10 μM DAPT for one day, days 18-19 or 20-21, SAG-treated aggregates): enhanced Tbx19 expression | percentage of ACTH-positive cells ([4]; 10 μM DAPT for one day, day 22): increased percentage | size of assemblies of Tbx19- and ACTH-highly positive cells ([4]; 10 μM DAPT treatment, assemblies in plural sites): > 30 cells | expression of Pitx1 [4]: did not increase, or rather decreased

O=C1Nc2cc(Br)ccc2/C1=C1/Nc2ccccc2/C1=N\O [BIO, 6-bromoindirubin-3′-oxime]
expression of Pitx1 [4]: greatly increased | further increase of GH-positive cells ([5]; BIO 250 nM during days 16-18 of culture, then hydrocortisone and insulin): 30-50%

B1: BMP4: Bone Morphogenetic protein of the BMP2/4 group; exogenous BMP signal promoter (protein, UniProt P12644 293-408, looked up)
Bone morphogenetic protein 4: SPKHHSQRARKKNKNCRRHSLYVDFSDVGWNDWIVAPPGYQAFYCHGDCPFPLADHLNSTNHAIVQTLVNSVNSSIPKACCVPTELSAISMLYLDEYDKVVLKNYQEMVVEGCGCR
expression of Pitx2 (mouse ES cell aggregates): increases; also recorded: elevation of Pitx2 expression | expression of Pitx1 compared to the group without the treatment (human ES cells; 5 nM BMP4 from day 3, 12000 cells/aggregate, qPCR day 17): about 10 fold | result when started from 3000 and 6000 human ES cells (human ES cells; BMP4 added to the medium): equivalent results were obtained | E-cad positive non-neural ectoderm morphology (human ES cells): formation of E-cadherin^+ thickened non-neural ectoderm | E-cad positive non-neural ectoderm morphology (human ES cells; listed as BMP): a part thereof was thickened to show a placode-like structure

B2: FGF8: FGF signal promoter (protein, UniProt P55075 23-233, looked up)
Fibroblast growth factor 8: QEGPGRGPALGRELASLFRAGREPQGVSQQHVREQSLVTDQLSRRLIRTYQLYSRTSGKHVQVLANKRINAMAEDGDPFAKLIVETDTFGSRVRVRGAETGLYICMNKKGKLIAKSNGKGKDCVFTEIVLENNYTALQNAKYEGWYMAFTRKGRPRKGSKTRQHQREVHFMKRLPRGHHTTEQSLRFEFLNYPPFTRSLRGSQRTWAPEPR
increase of tissues expressing Lim3 ([1]; FGF8 200 ng/ml during day 10-13, gfCDM without SAG): 30-50%
